Tests used:
[1] = Whole Blood Stability Assay (mouse whole blood); assay type: in vitro ADME; conditions: CD-1 mouse blood, EDTA-K2, final conc. 2 μM, 37° C., 0-120 min; for half-life at 2 μM: male, fresh whole blood, read-out: Mouse Whole Blood Stability t1/2
Procedure: Whole Blood Stability Assay
This Example illustrates that exemplary compounds of the present invention is cleavage in mouse whole blood.
(§1) Test Compounds and Stock Solutions: Stock Conc. 10 mM; Final Conc. 2 μM
(§2) Test Compound and Control Working Solution Preparation:
• Intermediate solution: 5 μL of compound stock solution (10 mM in dimethyl sulfoxide (DMSO)) were diluted with […] of DMSO (intermediate solution concentration: 1 mM, 100% DMSO) • Propantheline bromide (control) intermediate solution: 5 μL of propantheline stock solution (10 mM in ultra-pure water) were diluted with 45 μL of ultra-pure water (intermediate solution concentration: 1 mM) • Working solution 1: 20 μL of test compound intermediate solution (1 mM) were diluted with 180 μL of 45% ACN/H2O (working solution concentration: […], 40.5% ACN, 10% DMSO) • Working solution 2: 20 μL of control intermediate solution (1 mM) were diluted with 180 μL of 45% ACN/H2O (working solution concentration: 100 μM, 40.5% ACN, 10% DMSO) • Species/Matrix: CD-1 Mouse Blood • No. of Individuals: n>3 Male • Anticoagulant Used: EDTA-K2
• The fresh blood was collected on the day of experiment and pre-warmed in a water bath at 37° C. • Using an Apricot automation workstation, 98 μL/well of blank blood were added to all 96-well reaction plates (Blank, T0, T10, T30, T60 and T120). • An Apricot automation workstation was used to add 2 μL/well of working solution (100 μM) to all reaction plates except Blank (T0, T10, T30, T60 and T120). • All reaction plates containing mixtures of compound and blood were incubated at 37° C. in water bath. • The reaction plates were incubated at 37° C., and timer was started. • At the end of incubation, mixed 100 μL water with 100 μL spiked blood samples, then added 800 μL of stop solution (200 ng/mL tolbutamide and 200 ng/mL labetalol in ACN) to precipitate protein. Mixed thoroughly. • Each plate was sealed and shaken for 20 minutes. • After shaking, each plate was centrifuged at 4000 rpm and 4° C. for 20 minutes. • After centrifugation, an Apricot automation workstation was used to transfer 150 μL of supernatant from each reaction plate to its corresponding bioanalysis plate. • Each bioanalysis plate was submitted to LC-MS/MS analysis.
• The % remaining of test compound after incubation in blood was calculated using following equation:
(§3) [formula] • where PAR is the peak area ratio of analyte versus internal standard (IS) • The appointed incubation time points are TO (0 min), Tn (n=0, 10, 30, 60 and 120 min)

[2] = Plasma Stability Assay (human plasma); assay type: in vitro ADME; conditions: both sexes; pooled human plasma, heparin, final conc. 2 μM, 37° C., 0-120 min; read-out: Human Plasma Stability t1/2
Procedure: This Example illustrates that exemplary compounds of the present invention is cleavage in human plasma.
as §1, §2
• Test compound intermediate solution: 10 μL of compound stock solution (10 mM in dimethyl sulfoxide (DMSO)) were diluted with 90 μL of DMSO (intermediate solution concentration: 1 mM, 100% DMSO) • Control intermediate solution: 10 μL of control stock solution (10 mM in dimethyl sulfoxide (DMSO)) were diluted with 90 μL of DMSO (intermediate solution concentration: 1 mM, 100% DMSO) • Species/Matrix: Human Plasma • No. of Individuals: 3 Male & 3 Female • Anticoagulant Used: Heparin
• The pooled frozen plasma was thawed in a water bath at 37° C. prior to experiment. Plasma was centrifuged at 4000 rpm for 5 min and the clots were removed if any. • Using an Apricot automation workstation, 98 μL/well of blank plasma were added to all 96-well reaction plates. (Blank, T0, T10, T30, T60 and T120) • An Apricot automation workstation was used to add 2 μL/well of working solution (100 μM) to all reaction plates except Blank. (T0, T10, T30, T60 and T120) • All reaction plates containing mixtures of compound and plasma were incubated at 37° C. in water bath. • The reaction plates were incubated at 37° C., and timer was started. • At the end of incubation, added 500 μL of stop solution (200 ng/mL tolbutamide and 200 ng/mL labetalol in ACN) to precipitate protein. Mixed thoroughly. • Each plate was sealed and shaken for 20 minutes. • After shaking, each plate was centrifuged at 4000 rpm and 4° C. for 20 minutes • After centrifugation, an Apricot automation workstation was used to transfer 50 μL supernatant into 100 μL HPLC water. • Each bioanalysis plate was sealed and shaken for 10 minutes prior to LC-MS/MS analysis Data Analysis • The % remaining of test compound after incubation in blood was calculated using following equation:
as §3

half-life at 2 μM [1] | half-life at 2 μM [2] | Mouse Whole Blood Stability t1/2 [1] | Compound
2 min | 12 min |  | CCc1c(F)ccc2cc(OC(C)=O)cc(N3CCc4c(nc(OC[C@@]56CCCN5C[C@H](F)C6)nc4N4CCC[C@]5(C4)NC(=O)NC5=O)C3)c12 [Example 27, 4-(4-((R)-2,4-dioxo-1,3,7-triazaspiro[4.5]decan-7-yl)-2-(((2R,7aS)-2-fluorotetrahydro-1H-pyrrolizin-7a(5H)-yl)methoxy)-5,8-dihydropyrido[3,4-d]pyrimidin-7(6H)-yl)-5-ethyl-6-fluoronaphthalen-2-yl acetate]
2 min | 33 min |  | CCC(=O)Oc1cc(N2CCc3c(nc(OC[C@@]45CCCN4C[C@H](F)C5)nc3N3CCC[C@]4(C3)NC(=O)NC4=O)C2)c2c(CC)c(F)ccc2c1 [Example 29, 4-(4-((R)-2,4-dioxo-1,3,7-triazaspiro[4.5]decan-7-yl)-2-(((2R,7aS)-2-fluorotetrahydro-1H-pyrrolizin-7a(5H)-yl)methoxy)-5,8-dihydropyrido[3,4-d]pyrimidin-7(6H)-yl)-5-ethyl-6-fluoronaphthalen-2-yl propionate]
 | 27 min | 1 min | CCc1c(F)ccc2cc(OC(=O)OC)cc(N3CCc4c(nc(OC[C@@]56CCCN5C[C@H](F)C6)nc4N4CCC[C@]5(C4)NC(=O)NC5=O)C3)c12 [Example 30, 4-(4-((R)-2,4-dioxo-1,3,7-triazaspiro[4.5]decan-7-yl)-2-(((2R,7aS)-2-fluorotetrahydro-1H-pyrrolizin-7a(5H)-yl)methoxy)-5,8-dihydropyrido[3,4-d]pyrimidin-7(6H)-yl)-5-ethyl-6-fluoronaphthalen-2-yl methyl carbonate]
 | 210 min | 1 min | CCc1c(F)ccc2cc(OC(=O)C(C)C)cc(N3CCc4c(nc(OC[C@@]56CCCN5C[C@H](F)C6)nc4N4CCC[C@]5(C4)NC(=O)NC5=O)C3)c12 [Example 34, 4-(4-((R)-2,4-dioxo-1,3,7-triazaspiro[4.5]decan-7-yl)-2-(((2R,7aS)-2-fluorotetrahydro-1H-pyrrolizin-7a(5H)-yl)methoxy)-5,8-dihydropyrido[3,4-d]pyrimidin-7(6H)-yl)-5-ethyl-6-fluoronaphthalen-2-yl isobutyrate]
3 min | 33 min |  | CCOC(=O)Oc1cc(N2CCc3c(nc(OC[C@@]45CCCN4C[C@H](F)C5)nc3N3CCC[C@]4(C3)NC(=O)NC4=O)C2)c2c(CC)c(F)ccc2c1 [Example 36, 4-(4-((R)-2,4-dioxo-1,3,7-triazaspiro[4.5]decan-7-yl)-2-(((2R,7aS)-2-fluorotetrahydro-1H-pyrrolizin-7a(5H)-yl)methoxy)-5,8-dihydropyrido[3,4-d]pyrimidin-7(6H)-yl)-5-ethyl-6-fluoronaphthalen-2-yl ethyl carbonate]
2 min | 95 min |  | CCc1c(F)ccc2cc(OC(=O)OC(C)C)cc(N3CCc4c(nc(OC[C@@]56CCCN5C[C@H](F)C6)nc4N4CCC[C@]5(C4)NC(=O)NC5=O)C3)c12 [Example 40, 4-(4-((R)-2,4-dioxo-1,3,7-triazaspiro[4.5]decan-7-yl)-2-(((2R,7aS)-2-fluorotetrahydro-1H-pyrrolizin-7a(5H)-yl)methoxy)-5,8-dihydropyrido[3,4-d]pyrimidin-7(6H)-yl)-5-ethyl-6-fluoronaphthalen-2-yl isopropyl carbonate]

The next lines start with the compound.

Compound | half-life at 2 μM [1] | half-life at 2 μM [2] | Mouse Whole Blood Stability t1/2 [1]
CCc1c(F)ccc2cc(OC(=O)C3CC3)cc(N3CCc4c(nc(OC[C@@]56CCCN5C[C@H](F)C6)nc4N4CCC[C@]5(C4)NC(=O)NC5=O)C3)c12 [Example 32, 4-(4-((R)-2,4-dioxo-1,3,7-triazaspiro[4.5]decan-7-yl)-2-(((2R,7aS)-2-fluorotetrahydro-1H-pyrrolizin-7a(5H)-yl)methoxy)-5,8-dihydropyrido[3,4-d]pyrimidin-7(6H)-yl)-5-ethyl-6-fluoronaphthalen-2-yl cyclopropanecarboxylate] | 2 min | 51 min | 
CCCC(=O)Oc1cc(N2CCc3c(nc(OC[C@@]45CCCN4C[C@H](F)C5)nc3N3CCC[C@]4(C3)NC(=O)NC4=O)C2)c2c(CC)c(F)ccc2c1 [Example 33, 4-(4-((R)-2,4-dioxo-1,3,7-triazaspiro[4.5]decan-7-yl)-2-(((2R,7aS)-2-fluorotetrahydro-1H-pyrrolizin-7a(5H)-yl)methoxy)-5,8-dihydropyrido[3,4-d]pyrimidin-7(6H)-yl)-5-ethyl-6-fluoronaphthalen-2-yl butyrate] | < 5 min | 62 min | 
CCc1c(F)ccc2cc(OC(=O)N(C)C)cc(N3CCc4c(nc(OC[C@@]56CCCN5C[C@H](F)C6)nc4N4CCC[C@]5(C4)NC(=O)NC5=O)C3)c12 [Example 35, 4-(4-((R)-2,4-dioxo-1,3,7-triazaspiro[4.5]decan-7-yl)-2-(((2R,7aS)-2-fluorotetrahydro-1H-pyrrolizin-7a(5H)-yl)methoxy)-5,8-dihydropyrido[3,4-d]pyrimidin-7(6H)-yl)-5-ethyl-6-fluoronaphthalen-2-yl dimethylcarbamate] | > 289 min | > 289 min | 
CCc1c(F)ccc2cc(OC(=O)N3CCC3)cc(N3CCc4c(nc(OC[C@@]56CCCN5C[C@H](F)C6)nc4N4CCC[C@]5(C4)NC(=O)NC5=O)C3)c12 [Example 37, 4-(4-((R)-2,4-dioxo-1,3,7-triazaspiro[4.5]decan-7-yl)-2-(((2R,7aS)-2-fluorotetrahydro-1H-pyrrolizin-7a(5H)-yl)methoxy)-5,8-dihydropyrido[3,4-d]pyrimidin-7(6H)-yl)-5-ethyl-6-fluoronaphthalen-2-yl azetidine-1-carboxylate] | 189 min | > 289 min | 
CCc1c(F)ccc2cc(OC(=O)C(C)(C)C)cc(N3CCc4c(nc(OC[C@@]56CCCN5C[C@H](F)C6)nc4N4CCC[C@]5(C4)NC(=O)NC5=O)C3)c12 [Example 39, 4-(4-((R)-2,4-dioxo-1,3,7-triazaspiro[4.5]decan-7-yl)-2-(((2R,7aS)-2-fluorotetrahydro-1H-pyrrolizin-7a(5H)-yl)methoxy)-5,8-dihydropyrido[3,4-d]pyrimidin-7(6H)-yl)-5-ethyl-6-fluoronaphthalen-2-yl pivalate] |  | > 289 min | 1 min
CCc1c(F)ccc2cc(OC(=O)C3CCCC3)cc(N3CCc4c(nc(OC[C@@]56CCCN5C[C@H](F)C6)nc4N4CCC[C@]5(C4)NC(=O)NC5=O)C3)c12 [Example 42, 4-(4-((R)-2,4-dioxo-1,3,7-triazaspiro[4.5]decan-7-yl)-2-(((2R,7aS)-2-fluorotetrahydro-1H-pyrrolizin-7a(5H)-yl)methoxy)-5,8-dihydropyrido[3,4-d]pyrimidin-7(6H)-yl)-5-ethyl-6-fluoronaphthalen-2-yl cyclopentanecarboxylate] |  | 79 min | 1 min

Source: patent publication US20250376483A1, “PRODRUGS OF PAN-KRAS INHIBITORS” (Mirati Therapeutics, Inc., priority 2022, published 2025)
